Laboratory results as given in patent publication US8648089B2, “1,3,6-substituted indole derivatives having inhibitory activity for protein kinase” (Korea Institute of Science and Technology, priority 2009, dated 2014).

Molecular target: B-Raf-V600E kinase (Homo sapiens, UniProt P15056, V600E)
Assay: B-Raf kinase activity (kinase cascade assay)
Assay type: biochemical
Conditions: MEK1/Erk2/MBP, [γ-32P] ATP, read-out: B-Raf-V600E kinase inhibitory activity (IC50)
Method: Measurement of B-Raf Kinase Activity (Kinase Cascade Assay)
(1) Activation of MAP Kinase 2/Erk2 by B-Raf
Magnesium/ATP solution (500 μM ATP, 75 mM magnesium chloride) was prepared (10 μL). Diluted B-Raf-V600E enzyme (2.5 μL) was added at a final concentration of 1 ng/mL. and inactivated MEK1 (1.6 μL) was added at a final concentration of 0.4 μg/mL. Then, inactivated MAP Kinase 2/Erk2 (4 μL) was added at a final concentration of 1.0 μg/mL. The test compound was prepared at a concentration of 10 mM in dimethylsulfoxide (DMSO) and diluted to various concentrations (DMSO 2.6%). The final volume was adjusted to 38 μL by adding Assay Dilution Butter I (ADBI) and the mixture was allowed to react at 30° C. for 30 minutes. 5 μL of the mixture solution was taken to perform the next process.
(2) Phosphorylation of Myelin Basic Protein (MBP)
The mixture solution (5 μL) was treated with assay dilution buffer (10 μL) and then with myelin basic protein (MBP, 2 mg/mL, 10 μL). [γ-32P] ATP (100 μCi/container) diluted to 1/10 was added in 10 μL aliquots. After reaction at 30° C. for […] and then placing P81 paper in a scintillation vial, spotting was performed slowly using 25 μL of the reaction mixture. After washing 4 times with 0.75% phosphoric acid for 10 minutes and washing once with acetone for 5 minutes, 5 mL of scintillation cocktail was added to the scintillation vial. Signals were recorded using a scintillation counter.

B-Raf-V600E kinase, sequence (P15056 whole entry V600E): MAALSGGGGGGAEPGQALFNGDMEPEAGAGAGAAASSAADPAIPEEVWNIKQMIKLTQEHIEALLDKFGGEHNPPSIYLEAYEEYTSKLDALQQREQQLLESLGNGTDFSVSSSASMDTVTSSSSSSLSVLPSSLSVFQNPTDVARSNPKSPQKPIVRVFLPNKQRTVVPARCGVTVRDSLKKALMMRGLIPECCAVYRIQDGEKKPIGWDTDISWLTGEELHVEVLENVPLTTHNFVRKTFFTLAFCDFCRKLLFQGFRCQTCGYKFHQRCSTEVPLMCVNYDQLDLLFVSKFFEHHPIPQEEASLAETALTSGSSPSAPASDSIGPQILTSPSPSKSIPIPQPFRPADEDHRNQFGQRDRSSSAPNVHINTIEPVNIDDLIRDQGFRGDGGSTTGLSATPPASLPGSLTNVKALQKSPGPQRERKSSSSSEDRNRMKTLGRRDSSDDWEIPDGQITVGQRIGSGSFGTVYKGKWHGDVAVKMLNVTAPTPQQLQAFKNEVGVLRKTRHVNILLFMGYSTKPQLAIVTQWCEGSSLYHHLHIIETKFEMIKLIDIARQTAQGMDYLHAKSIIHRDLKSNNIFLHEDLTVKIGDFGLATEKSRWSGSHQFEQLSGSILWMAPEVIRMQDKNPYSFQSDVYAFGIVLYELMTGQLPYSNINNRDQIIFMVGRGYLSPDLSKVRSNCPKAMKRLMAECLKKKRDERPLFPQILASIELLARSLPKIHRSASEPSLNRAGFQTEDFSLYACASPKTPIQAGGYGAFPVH

Compound | IC50
CC(=O)Nc1cccc(-c2ccc3c(-c4ccc(OCCN(C)C)cc4)cn(-c4ccncc4)c3c2)c1 [Example 25, N-(3-(3-(4-(2-(dimethylamino)ethoxy)phenyl)-1-(pyridin-4-yl)-1H-indol-6-yl)phenyl)acetamide] | < 10 µM
CNc1cc(-n2cc(-c3cccc(N)c3)c3ccc(-c4ccc(OC)cc4)cc32)ncn1 [Example 27, 6-(3-(3-aminophenyl)-6-(4-methoxyphenyl)-1H-indol-1-yl)-N-methylpyrimidin-4-amine] | < 10 µM

Other lines, results leading:

IC50 | Compound
< 10 µM | 4-(6-(4-methoxyphenyl)-1-(6-(methylamino)pyrimidin-4-yl)-1H-indol-3-yl)benzoate [Example 30]
< 10 µM | CNc1cc(-n2cc(-c3ccc(OC)cc3)c3ccc(-c4cccc(NC(=O)Nc5ccccc5OC)c4)cc32)ncn1 [Example 39, 1-(2-methoxyphenyl)-3-(3-(3-(4-methoxyphenyl)-1-(6-(methylamino)pyrimidin-4-yl)-1H-indol-6-yl)phenyl)urea]

Tested on: A375P cells
Assay: Inhibitory activity against proliferation of A375P melanoma cells (MTT assay)
Assay type: cell-based
Conditions: A375P human melanoma cells with B-Raf-V600E
Method: Measurement of Inhibitory Activity Against Proliferation of A375P Melanoma Cells
A375P cells purchased from ATCC were cultured in DMEM [10% FBS, 1% penicillin/streptomycin] at 37° C. in the presence of 5% CO2. The cultured A375P cells were harvested with 0.05% trypsin-0.02% EDTA and seeded in a 96-well plate at 5×10^3 cells per well.
3-(4,5-Dimethylthiazol-2-yl)-2,5-diphenyltetrazolium bromide (MTT) assay (CellTiter 96 Assay, Promega) was employed to measure cell viability. After adding 15 μL of a dye per well and culturing for 2 hours, the cells were treated with 100 μL of a stop solution and absorbance was measured 24 hours later. The test compound was treated a day after plating. The test compound had been sequentially diluted at 12 concentrations from a 10 mM stock solution using sterilized dimethylsulfoxide (DMSO) and treated with an amount of 0.5 μL. Absorbance at 590 nm was recorded using EnVision2103, and GI50 value was calculated using GraphPad Prism 4.0 software.
The inhibitory activity against proliferation of the A375P cells of some typical compounds according to the present invention is given in Table 2.

Compound | GI50
O=[N+]([O-])c1cccc(-c2ccc3c(Br)cn(-c4cc(Cl)ncn4)c3c2)c1 [Example 9, 3-bromo-1-(6-chloropyrimidin-4-yl)-6-(3-nitrophenyl)-1H-indole] | < 10 µM
COc1ccc(-c2cn(-c3ccncc3)c3cc(N4CCN(C(=O)OC(C)(C)C)CC4)ccc23)cc1 [Example 13, tert-butyl 4-(3-(4-methoxyphenyl)-1-(pyridin-4-yl)-1H-indol-6-yl)piperazine-1-carboxylate] | < 10 µM
COc1ccc(-c2cn(-c3ccncc3)c3cc(N4CCNCC4)ccc23)cc1 [Example 14, 3-(4-methoxyphenyl)-6-(piperazin-1-yl)-1-(pyridin-4-yl)-1H-indole] | < 10 µM
CNc1cc(-n2cc(-c3cccc([N+](=O)[O-])c3)c3ccc(-c4ccc(OC)cc4)cc32)ncn1 [Example 26, 6-(6-(4-methoxyphenyl)-3-(3-nitrophenyl)-1H-indol-1-yl)-N-methylpyrimidin-4-amine] | < 10 µM
CNc1cc(-n2cc(-c3cccc(N)c3)c3ccc(-c4ccc(OC)cc4)cc32)ncn1 [Example 27, 6-(3-(3-aminophenyl)-6-(4-methoxyphenyl)-1H-indol-1-yl)-N-methylpyrimidin-4-amine] | < 10 µM

Results, then the compound that gave them:

GI50 | Compound
< 10 µM | 4-(6-(4-methoxyphenyl)-1-(6-(methylamino)pyrimidin-4-yl)-1H-indol-3-yl)benzoate [Example 30]
< 10 µM | CNc1cc(-n2cc(-c3cccc(NC(C)=O)c3)c3ccc(-c4ccc(OC)cc4)cc32)ncn1 [Example 28, N-(3-(6-(4-methoxyphenyl)-1-(6-(methylamino)pyrimidin-4-yl)-1H-indol-3-yl)phenyl)acetamide]
< 10 µM | CNc1cc(-n2cc(-c3ccc(C(=O)NCCN4CCOCC4)cc3)c3ccc(-c4ccc(OC)cc4)cc32)ncn1 [Example 31, 4-(6-(4-methoxyphenyl)-1-(6-(methylamino)pyrimidin-4-yl)-1H-indol-3-yl)-N-(2-morpholinoethyl)benzamide]
< 10 µM | COc1ccc(-c2cn(-c3ccnc([S+](C)[O-])n3)c3cc(-c4cccc([N+](=O)[O-])c4)ccc23)cc1 (stereo not drawn) [Example 33, 3-(4-methoxyphenyl)-1-(2-(methylsulfinyl)pyrimidin-4-yl)-6-(3-nitrophenyl)-1H-indole]
< 10 µM | CNc1cc(-n2cc(-c3ccc(OC)cc3)c3ccc(-c4cccc(NC(=O)Nc5ccc(Cl)c(C(F)(F)F)c5)c4)cc32)ncn1 [Example 37, 1-(4-chloro-3-(trifluoromethyl)phenyl)-3-(3-(3-(4-methoxyphenyl)-1-(6-(methylamino)pyrimidin-4-yl)-1H-indol-6-yl)phenyl)urea]
< 10 µM | CNc1cc(-n2cc(-c3ccc(OC)cc3)c3ccc(-c4cccc(NC(=O)Nc5ccccc5OC)c4)cc32)ncn1 [Example 39, 1-(2-methoxyphenyl)-3-(3-(3-(4-methoxyphenyl)-1-(6-(methylamino)pyrimidin-4-yl)-1H-indol-6-yl)phenyl)urea]
< 10 µM | CNc1cc(-n2cc(-c3cccc(NC(=O)Nc4ccc(Cl)c(C(F)(F)F)c4)c3)c3ccc(-c4ccc(OC)cc4)cc32)ncn1 [Example 45, 1-(4-chloro-3-(trifluoromethyl)phenyl)-3-(3-(6-(4-methoxyphenyl)-1-(6-(methylamino)pyrimidin-4-yl)-1H-indol-3-yl)phenyl)urea]

Tested on: A375 melanoma cells
Assay: not given
Conditions: read-out: proliferation of A375 melanoma cells IC50; cited from earlier work

Compound | IC50
CCCS(=O)(=O)Nc1ccc(F)c(C(=O)c2c[nH]c3ncc(Cl)cc23)c1F [PLX4720] | 0.5 µM

Tested on: not given
Assay: not given
Conditions: 600 mg twice a day, clinical; cited from earlier work

Compound | skin toxicity on administration
CNC(=O)c1cc(Oc2ccc(NC(=O)Nc3ccc(Cl)c(C(F)(F)F)c3)cc2)ccn1 [sorafenib, Sorafenib] | grade 3 skin toxicity
